Key:
Experiment in all cases: relative viability (nuclei count vs DMSO), 5 days (fraction); higher = more cells survive
[1] = compound: COC1=CC=C(C=C1)CN2C=CC3=C2C=C(C=C3)C(=O)NO + O=C(CCCCCCC(=O)Nc1ccccc1)NO [Vorinostat] (partner 1 µM)
Summary of the method: (§1)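 Medians of duplicate plates are given as relative viability. That measure is the nuclei count in treated wells divided by the count in vehicle wells. Counts were taken on 4× images of lung cancer cell lines in 1536-well plates, 5 days after pin-tool dosing the day after seeding with one drug alone or a fixed anchor-drug dose plus five library-drug doses (not always all listed) in √10 steps.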

[2] = compound: C[C@]1(c2nc3c(C(N)=O)cccc3[nH]2)CCCN1 [Veliparib] + CCNC(=O)c1noc(-c2cc(C(C)C)c(O)cc2O)c1-c1ccc(CN2CCOCC2)cc1 [Luminespib] (partner 0.01 µM)
Summary of the method: as §1

[3] = compound: C[C@]1(c2nc3c(C(N)=O)cccc3[nH]2)CCCN1 [Veliparib] + Cc1cc(Nc2cc(N3CCN(C)CC3)nc(Sc3ccc(NC(=O)C4CC4)cc3)n2)n[nH]1 [Tozasertib] (partner 0.1 µM)
Summary of the method: as §1

[4] = compound: C[C@]1(c2nc3c(C(N)=O)cccc3[nH]2)CCCN1 [Veliparib] + O=C(c1cc(Cc2n[nH]c(=O)c3ccccc23)ccc1F)N1CCN(C(=O)C2CC2)CC1 [Olaparib] (partner 8 µM)
Summary of the method: as §1

Row | Cell Line | relative viability ([1]; first compound 0.08 µM) | relative viability ([1]; first compound 0.253 µM) | relative viability ([1]; first compound 0.8 µM) | relative viability ([1]; first compound 2.53 µM) | relative viability ([1]; first compound 8 µM) | relative viability ([2]; first compound 0.02 µM) | relative viability ([2]; first compound 0.06325 µM) | relative viability ([2]; first compound 0.2 µM) | relative viability ([2]; first compound 0.6325 µM) | relative viability ([2]; first compound 2 µM) | relative viability ([3]; first compound 0.02 µM) | relative viability ([3]; first compound 0.06325 µM) | relative viability ([3]; first compound 0.2 µM) | relative viability ([3]; first compound 0.6325 µM) | relative viability ([3]; first compound 2 µM) | relative viability ([4]; first compound 0.02 µM) | relative viability ([4]; first compound 0.06325 µM) | relative viability ([4]; first compound 0.2 µM) | relative viability ([4]; first compound 0.6325 µM) | relative viability ([4]; first compound 2 µM)
1 | COR-L23 | 0.273 | 0.456 | 0.455 | 0.518 | 0.502 | 0.696 | 0.523 | 0.558 | 0.538 | 0.433 | 0.229 | 0.249 | 0.257 | 0.216 | 0.172 | 0.376 | 0.247 | 0.329 | 0.295 | 0.355
2 | HCC-15 | 0.544 | 0.951 | 0.828 | 0.926 | 0.754 | 0.302 | 0.314 | 0.252 | 0.191 | 0.334 | 0.361 | 0.356 | 0.464 | 0.362 | 0.354 | 0.756 | 0.649 | 0.726 | 0.686 | 0.706
3 | NCI-H1651 | 0.52 | 0.512 | 0.498 | 0.464 | 0.475 | 0.724 | 0.806 | 0.88 | 0.486 | 0.651 | 0.864 | 0.654 | 0.646 | 0.604 | 0.545 | 0.172 | 0.197 | 0.183 | 0.173 | 0.183
4 | CAL-12T | 0.562 | 0.855 | 0.821 | 0.719 | 0.787 | 0.348 | 0.147 | 0.522 | 0.266 | 0.155 | 0.317 | 0.376 | 0.327 | 0.318 | 0.369 | 0.723 | 0.727 | 0.696 | 0.649 | 0.712
5 | LK-2 | 0.172 | 0.291 | 0.282 | 0.308 | 0.221 | – | 0.184 | 0.202 | 0.19 | 0.193 | – | 0.152 | 0.159 | 0.221 | 0.18 | 0.696 | 0.629 | 0.659 | 0.757 | 0.85
6 | NCI-H1703 | – | – | – | – | – | – | – | – | – | – | – | – | – | – | – | 0.514 | 0.292 | 0.397 | 0.56 | 0.501
7 | H3255 | 0.34 | 0.739 | 0.842 | 0.849 | 0.731 | 0.698 | 0.717 | 0.778 | 0.894 | 0.813 | 0.624 | 0.664 | 0.704 | 0.612 | 0.538 | 0.544 | 0.61 | 0.534 | 0.567 | 0.553
8 | NCI-H727 | 1.13 | 1.17 | 1.22 | 1.25 | 1.25 | 0.442 | 0.33 | 0.364 | 0.265 | 0.353 | 0.672 | 0.648 | 0.573 | 0.495 | 0.654 | 0.601 | 0.549 | 0.739 | 0.665 | 0.748
9 | NCI-H2405 | 0.782 | – | 0.984 | 1.03 | 0.896 | 0.695 | 0.609 | 0.771 | 0.666 | 0.711 | 0.793 | 0.689 | 0.714 | 0.724 | 0.777 | 0.927 | – | 0.888 | 0.872 | 0.939
10 | RERF-LC-KJ | 0.624 | 0.672 | 0.66 | 0.758 | 0.632 | 1.26 | 1.25 | 1.2 | 1.21 | 1.29 | 0.515 | 0.5 | 0.521 | 0.481 | 0.485 | 1.03 | 0.795 | 0.814 | 0.881 | 0.85
11 | NCI-H1734 | – | 0.882 | 0.779 | 0.731 | 0.658 | 0.197 | 0.209 | 0.211 | 0.232 | 0.233 | 0.309 | 0.262 | 0.284 | 0.268 | 0.269 | – | 0.577 | 0.666 | 0.567 | 0.691
12 | HCC-827 | 0.592 | 0.897 | 0.799 | 0.799 | 0.788 | 0.468 | 0.692 | 0.654 | 0.493 | 0.588 | 0.436 | 0.443 | 0.434 | 0.376 | 0.398 | 0.629 | 0.634 | 0.561 | 0.585 | 0.615
13 | NCI-H520 | 0.601 | 0.775 | 0.682 | 0.664 | 0.712 | 0.224 | 0.239 | 0.221 | 0.205 | 0.247 | 0.337 | 0.488 | 0.439 | 0.47 | 0.503 | 0.352 | 0.329 | 0.332 | 0.366 | 0.358
14 | NCI-H1792 | – | – | – | – | – | 0.509 | 0.361 | 0.508 | 0.429 | 0.331 | – | – | – | – | – | 0.693 | 0.311 | 0.68 | 0.411 | 0.397
15 | NCI-H1648 | 0.373 | 0.515 | 0.337 | 0.528 | 0.406 | – | – | – | – | – | 0.723 | 0.469 | 0.383 | 0.405 | 0.363 | 0.948 | – | – | 0.7 | 0.919
16 | HCC-366 | 0.107 | 0.303 | 0.385 | 0.407 | 0.223 | – | – | – | – | – | 0.159 | 0.147 | 0.108 | 0.137 | 0.112 | 0.431 | 0.374 | 0.401 | 0.303 | 0.353
17 | EBC-1 | – | – | – | – | – | – | – | – | – | – | – | – | – | – | – | 0.748 | 0.622 | 0.731 | 0.655 | 0.756
18 | HCC-78 | 0.403 | 0.484 | 0.431 | 0.523 | 0.411 | – | – | – | – | – | 0.402 | 0.381 | 0.404 | 0.35 | 0.404 | 0.755 | 0.745 | 0.82 | 0.742 | 0.806
19 | A549 | – | – | – | – | – | – | – | – | – | – | – | – | – | – | – | 0.308 | 0.375 | 0.223 | 0.314 | 0.407
20 | NCI-H1299 | – | – | – | – | – | – | – | – | – | – | – | – | – | – | – | 1.03 | 0.949 | 0.925 | 0.963 | 1.03
21 | NCI-H1563 | – | – | – | – | – | 0.484 | 0.536 | 0.526 | 0.49 | 0.535 | – | – | – | – | – | – | – | – | – | –
